Measured values as given in ChEMBL document CHEMBL4808148, “HDAC6 screening dataset using tau-based substrate in an enzymatic assay yields selective inhibitors and activators” (2021).

The compounds below were run against T1, Protein deacetylase HDAC6 (Homo sapiens) (UniProt Q9UBN7). Settings: at 10 µM.
T1 sequence (whole entry): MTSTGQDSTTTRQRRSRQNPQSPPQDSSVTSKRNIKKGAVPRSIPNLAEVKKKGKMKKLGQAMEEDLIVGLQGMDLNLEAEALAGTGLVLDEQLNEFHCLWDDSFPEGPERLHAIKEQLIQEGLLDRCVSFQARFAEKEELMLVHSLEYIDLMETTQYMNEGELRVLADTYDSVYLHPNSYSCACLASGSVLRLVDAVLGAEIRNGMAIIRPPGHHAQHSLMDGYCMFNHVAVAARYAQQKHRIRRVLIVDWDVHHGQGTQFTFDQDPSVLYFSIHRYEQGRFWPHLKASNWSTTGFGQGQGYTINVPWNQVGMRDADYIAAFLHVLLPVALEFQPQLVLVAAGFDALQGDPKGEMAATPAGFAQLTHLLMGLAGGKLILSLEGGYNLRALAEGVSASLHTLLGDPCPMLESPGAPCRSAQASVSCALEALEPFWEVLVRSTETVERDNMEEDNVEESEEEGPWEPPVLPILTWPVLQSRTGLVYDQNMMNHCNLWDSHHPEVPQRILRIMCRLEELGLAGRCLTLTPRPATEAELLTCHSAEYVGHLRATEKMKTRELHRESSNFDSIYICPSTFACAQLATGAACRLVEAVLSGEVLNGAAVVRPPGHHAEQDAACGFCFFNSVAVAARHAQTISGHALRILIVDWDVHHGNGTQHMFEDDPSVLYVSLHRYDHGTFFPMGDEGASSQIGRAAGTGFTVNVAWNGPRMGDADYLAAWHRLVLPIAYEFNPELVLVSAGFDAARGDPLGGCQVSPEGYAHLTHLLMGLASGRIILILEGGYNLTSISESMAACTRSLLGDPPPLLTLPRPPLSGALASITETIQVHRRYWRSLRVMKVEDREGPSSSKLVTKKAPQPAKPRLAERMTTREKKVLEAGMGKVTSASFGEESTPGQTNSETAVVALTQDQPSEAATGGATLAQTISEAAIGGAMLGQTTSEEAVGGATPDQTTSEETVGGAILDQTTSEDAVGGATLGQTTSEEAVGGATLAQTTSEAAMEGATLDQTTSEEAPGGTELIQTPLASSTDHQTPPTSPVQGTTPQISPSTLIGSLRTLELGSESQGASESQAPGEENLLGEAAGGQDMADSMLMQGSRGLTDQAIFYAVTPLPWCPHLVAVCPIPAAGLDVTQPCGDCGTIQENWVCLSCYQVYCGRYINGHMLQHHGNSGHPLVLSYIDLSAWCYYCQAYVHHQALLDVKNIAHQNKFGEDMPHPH

In order of falling inhibition:
1. Cc1nc2ccc(-n3ncc(C(=O)c4cc5ccccc5[nH]4)c3N)cc2[nH]1  112%
2. COc1ccc(Nc2ccn(-c3ccccc3)n2)cc1  111%
3. CC(=O)Oc1ccccc1C(=O)Nc1ncc([N+](=O)[O-])s1  110%
4. CC(C)c1ccc2oc3nc(N)c(C(=O)O)cc3c(=O)c2c1  108%
5. NCCNc1ccc(NCCN)c2c1C(=O)c1ccncc1C2=O  108%
6. Nc1ccc(/N=N/c2ccccc2)c(N)n1  106%
7. C[C@@H]1CC(=O)c2c(ccc3c2C(=O)c2cccc(O)c2C3=O)C1  105%
8. COc1ccc(-c2nc(N3CCOCC3)c3sc(CN(C)c4ncc(C(=O)NO)cn4)cc3n2)cn1  104%
9. O=C(CCCCCN1C(=O)c2cccc3cccc(c23)C1=O)NO  104%
10. CN(C)Cc1c(C(=O)NCCOc2ccc(C(=O)NO)cc2)oc2ccccc12  102%
11. O=C(Nc1ccc(O)cc1)c1ccccc1O  100%
12. COc1ccc(C2C(=O)c3ccccc3C2=O)cc1  99.8%
13. O=C(/C=C/c1ccc(O)cc1)c1ccc(O)cc1O  97.8%
14. O=C1Cc2c([nH]c3ccc(Br)cc23)-c2ccccc2N1  96.6%
15. Cc1cc(Cl)ccc1OCCCC(=O)NO  96.5%
16. c1ccc(CCNc2nc(-c3ccccc3)cs2)cc1  96.5%
17. O=C1NC(=O)/C(=C/c2ccc(-c3ccc(F)cc3O)o2)S1  94.9%
18. CN(C)CC/C=C1\c2ccccc2Sc2ccc(Cl)cc21  94.5%
19. O=C1Cc2c([nH]c3ccc(Br)cc23)-c2ncccc2N1  92.8%
20. CCCCOC(=O)c1cc2c(cn1)[nH]c1ccccc12  91.6%
21. Cc1[nH]c(/C=C2\C(=O)Nc3cc(-c4ccccc4)ccc32)c(C)c1CCC(=O)O  90.4%
22. O=C(/C=C/c1ccc2c(c1)OCO2)N1CCCCC1  89.8%
23. COC(=O)Nc1nc2cc(SC(C)C)ccc2[nH]1  87.7%
24. O=C(Nc1ccc2[nH]ccc2c1)c1ccccc1  86.3%
25. C[C@H](NCc1ccc(OCc2cccc(F)c2)cc1)C(N)=O  84.6%
26. O=C(OCC(O)CO)c1ccccc1Nc1ccnc2cc(Cl)ccc12 (stereo not given)  83.6%
27. Nc1nc(N)c(N=O)c(OCC2CCCCC2)n1  83.5%
28. CC(C)COC(=O)c1ccc(N)cc1  82.1%
29. NS(=O)(=O)c1nn2cc(-c3ccccc3)nc2s1  81.9%
30. C/N=c1/nc(-c2ccccc2)n(-c2ccccc2)s1  81.7%
31. CCCCOC(=O)c1ccc(O)cc1  81.3%
32. CC(C)(C)c1[nH]cnc1/C=c1\[nH]c(=O)/c(=C/c2ccccc2)[nH]c1=O  80.7%
33. Cc1cc(C)c(N)c(C#Cc2cccc(F)c2)n1  74.2%
34. CC(C)(C)C1CCc2c(sc(NC(=O)c3ccco3)c2C(=O)O)C1 (stereo not given)  73.7%
35. O=C(O)CNC(=O)c1c(O)c2ccccc2n(Cc2ccccc2)c1=O  73.4%
36. CC(C)OC(=O)Nc1cccc(Cl)c1  73%
37. O=C1OC2(c3cc(I)c(O)c(I)c3Oc3c2cc(I)c(O)c3I)c2c(Cl)c(Cl)c(Cl)c(Cl)c21  68.7%
38. O=C(Oc1ccccc1)c1ccccc1O  67.9%
39. CN1[C@@H]2C[C@@H](O)C[C@H]1[C@@H]1O[C@@H]12  67.9%
40. CC(C)(C)c1ccc(C(=O)Nc2cn3cc(-n4ccnc4)ccc3n2)cc1  67.2%
41. Cc1cc(O)c2c(=O)c3c(O)cc(O)c4c5c(O)cc(O)c6c(=O)c7c(O)cc(C)c8c1c2c(c34)c(c78)c65  66.5%
42. Cc1cc(O)c2c(c1)C(=O)c1cccc(O)c1C2=O  65.1%
43. CC(C)Oc1ccc2c(=O)c3cc(C(=O)O)ccc3oc2c1  64.7%
44. Cc1cc(NCCO)nc(-c2ccc(Br)cc2)n1  64.4%
45. CN1CCN(c2ccc3nc(-c4c(N)c5c(F)cccc5[nH]c4=O)[nH]c3c2)CC1  63%
46. O=c1c2ccccc2oc2ccccc12  61.8%
47. Nc1ncnc(Nc2ccc(Cl)cc2)n1  59.8%
48. N#C/C(=C\c1ccc(O)c(O)c1)C(=O)Nc1ccccc1  58.9%
49. N#Cc1c(O)c2c(-c3ccc(-c4ccccc4O)cc3)csc2[nH]c1=O  57.7%
50. C/C(=N\NC(=N)N)c1cc(NC(=O)CCCCCCCCC(=O)Nc2cc(/C(C)=N/NC(=N)N)cc(/C(C)=N/NC(=N)N)c2)cc(/C(C)=N/NC(=N)N)c1  57.5%
51. COc1cc2nc(C3CC3)nc(N3CCN(c4ccccc4OC)CC3)c2cc1OC  56.3%
52. CN1CCCN=C1/C=C/c1cccc(O)c1  53.6%
53. C=CC(C)(C)c1cc(/C=C/C(=O)c2ccc(O)cc2)c(OC)cc1O  52.1%
54. O=C(/C=C/c1ccccc1)NCCO  50.5%
55. O=C(/C=C/c1ccc(O)c(O)c1)OCCc1ccccc1  47.2%
56. CN1CCCN=C1/C=C/c1cccs1  42%
57. Cc1cc(C)c(/C=C2\C(=O)Nc3ccccc32)[nH]1  36.4%
58. CCC(CC)(CC(=O)Nc1cccc(/C=C/c2nc(C3CCC3)cs2)c1)C(=O)O  36.2%
59. N#C/C(=C\c1ccc(O)c(O)c1)C(=O)NCCCc1ccccc1  33.8%
60. FC(F)(F)c1cc(NC(=S)Nc2ccc(Br)cc2-c2nnn[nH]2)cc(C(F)(F)F)c1  31.7%
61. CCN(CC)C(=O)Nc1ccc(OCC(O)CNC(C)(C)C)c(C(C)=O)c1 (stereo not given)  27.1%
62. Nc1cc2c3ccccc3ccc2c2ccccc12  24.2%
63. c1ccc2sc(SNC3CCCCC3)nc2c1  23.2%
64. Cc1ccc(NC(=O)c2ccc(CN3CCN(C)CC3)cc2)cc1Nc1nc(-c2cccnc2)cs1  22.6%
65. Cc1cn([C@H]2C=C[C@@H](CO)O2)c(=O)[nH]c1=O  19.5%
66. CCCn1c(=O)c2[nH]c(-c3cnn(Cc4cccc(C(F)(F)F)c4)c3)nc2n(CC)c1=O  18.7%
67. O=C(NCc1ccc2c(c1)OCO2)c1c(Cl)cccc1Cl  17.4%
68. C#C[C@]1(OC(C)=O)CC[C@H]2[C@@H]3CCC4=C/C(=N/O)CC[C@@H]4[C@H]3CC[C@@]21CC  17.1%
69. CCOc1cc(/C=C2/C(=O)N(c3ccccc3)N=C2C)cc(Cl)c1OCC(=O)OC  16.6%
70. CCCCCCCCCCCCCCCC(=O)N[C@@H](CCC(=O)NCCCC[C@H](NC(=O)[C@H](C)NC(=O)[C@H](C)NC(=O)[C@H](CCC(N)=O)NC(=O)CNC(=O)[C@H](CCC(=O)O)NC(=O)[C@H](CC(C)C)NC(=O)[C@H](Cc1ccc(O)cc1)NC(=O)[C@H](CO)NC(=O)[C@H](CO)NC(=O)[C@@H](NC(=O)[C@H](CC(=O)O)NC(=O)[C@H](CO)NC(=O)[C@@H](NC(=O)[C@H](Cc1ccccc1)NC(=O)[C@@H](NC(=O)CNC(=O)[C@H](CCC(=O)O)NC(=O)[C@H](C)NC(=O)[C@@H](N)Cc1cnc[nH]1)[C@@H](C)O)[C@@H](C)O)C(C)C)C(=O)N[C@@H](CCC(=O)O)C(=O)N[C@@H](Cc1ccccc1)C(=O)N[C@H](C(=O)N[C@@H](C)C(=O)N[C@@H](Cc1c[nH]c2ccccc12)C(=O)N[C@@H](CC(C)C)C(=O)N[C@H](C(=O)N[C@@H](CCCNC(=N)N)C(=O)NCC(=O)N[C@@H](CCCNC(=N)N)C(=O)NCC(=O)O)C(C)C)[C@@H](C)CC)C(=O)O  15.4%
71. N[C@@H]1CCCN(c2c(/C=C3\SC(=O)NC3=O)cccc2-c2ccccc2)C1  14.4%
72. COc1ccccc1OCC(O)COC(N)=O (stereo not given)  8.29%
73. O=c1c2ccccc2[se]n1-c1ccccc1  3.77%
74. Cc1c(CN(C)C(=O)/C=C/c2cnc3c(c2)CCC(=O)N3)oc2ccccc12  0.5%
75. CCOc1ccc(S(=O)(=O)O)c2cccnc12  -1.18%
